The results in this text go back to US20060045883A1, “Anti-cancer vaccines” (priority 2004, published 2006).

“And” between values parts separate entries of the source, which are not always exact repeats. Equal values may be shown once.

Test [1] concerns the target T1, HLA-A2 (Homo sapiens, UniProt P04439, D140Y/D185E/D98H/E176V/E277Q/G131W/G231S/I119V/I121R/I166T/I218V/L300P/L318F/N151K/N90K/P208A/P217A/Q86G/Q94H/R138H/R169H/T345S).
T1 construct: measure HLA-A2.1 surface expression on the A2+ T2 cell line coated with the peptide; host or cells: T2 cells
Put plainly: Peptide-binding assay: stabilization of HLA-A2 on the surface of T2 cells, compared to PR1. The text has this: (§1) Nonameric peptides derived from cyclin E1 and cyclin E2 and predicted to bind to the HLA-A2 allele have similar amino acid sequences, differing only at position 7. Thus, the binding of CCNE1144-152 (cyclin E1 derived) and CCNE2144-152 (cyclin E2 derived) was compared to that of PR1 by a peptide-binding assay. The ability of CCNE1144-152 and CCNE2144-152 to stabilize HLA-A2 on the surface of T2 cells was almost the same as that of PR1 (FI CCNE1144-152/FI PR1=1.008, FI CCNE2144-152/FI PR1=1.189). […] In 3 of 7 donors, CCNE1144-152-stimulated CTL lines killed both CCNE1144-152 and CCNE 2144-152-pulsed T2 cells but not non-peptide-pulsed T2 cells and irrelevant peptide-pulsed T2 cells. In 4 of 7 same donors, CCNE2144-152-stimulated CTL lines killed both CCNE2144-152 and CCNE1144-152-pulsed T2 cells but not non-peptide-pulsed T2 cells and irrelevant peptide-pulsed T2 cells.

Test [2] has as its system HLA-A2 transfected K562 leukemic cell line. Put plainly: Killing of leukemic cell line by CCNE1 peptide-stimulated CTL lines. Format: cell-based, human. The text has this: Thus, each peptide-specific CTLs can recognize both peptides with HLA-A2, but the immunogenicity of each peptide is different between individuals. Moreover, one of 4 CCNE1144-152-stimulated CTL lines which killed CCNE1144-152-pulsed T2 cell killed HLA-A2 transfected K562 leukemic cell line which is over-expressing cyclin E1 protein, but not non-transfected K562 leukemic cell line. Thus, CCNE1144-152-specific CTL can distinguish leukemic cell lines from normal PBMCs. From the data, it was concluded that cyclin E1/E2 derived peptides are potential tumor-antigens, because 1) cyclin E1/E2 are highly over-expressed in hematological malignancy, 2) cyclin E1/E2 peptides can sufficiently bind to HLA-A2 to stimulate CTL and 3) CCLE1144-152 specific CTL preferentially kills leukemic cell lines HLA-A2 restrictively.

Test [3] has as its system peptide-pulsed T2 cells. The test is described as follows: Elicitation of cyclin E peptide-specific CTL with peptide-pulsed T2 cells. Format: cell-based, human. To be noted: PBMCs from 7 HLA-A2 positive normal donors.
Description: as §1

The target in test [4] is HLA-A2.1 (Homo sapiens, UniProt P04439, D140Y/D185E/D98H/E176V/E277Q/G131W/G231S/I119V/I121R/I166T/I218V/L300P/L318F/N151K/N90K/P208A/P217A/Q86G/Q94H/R138H/R169H/T345S). The test is described as follows: HLA-A2.1 surface expression on peptide-coated T2 cells by indirect flow cytometry (BB7.2). To be noted: for Median Channel of Fluorescence of HLA-A2 Expression on T2: peptide-coated T2 cells, background HLA-A2 22; for surface HLA-A2.1 expression on peptide-pulsed T2 cells: compared with T2 cells with no added peptide / positive control influenza peptide. In kind it is binding.

In test [5] the test system is PR1-CTL from a healthy donor. The test is described as follows: Annexin V apoptosis of PR1-CTL challenged with peptide-pulsed T2 cells. Format: cell-based, human. The note with it: for apoptosis of high avidity PR1-CTL: T2 cells pulsed with 20 μM peptide, Annexin V 16 to 18 hr. From the text:
High PR1 concentration and proteinase 3-overexpressing CML cells induce apoptosis of high avidity PR1-specific CTL. […] All high avidity PR1-CTL exposed to high dose PR1 were dead after 36 to 48 hr of co-culture.

Test [6] in a line: Cytotoxicity of peptide-elicited CTL lines against fresh myeloid leukemia marrow and normal marrow. In kind it is cell-based, human. The text has this:
(§2) PR1 specific CTL preferentially lyse human myeloid leukemia cells. It was next determined whether the PR1-specific CTL line was capable of lysing allogeneic human myeloid leukemia cells from HLA-A2.1 positive individuals. As controls, two cell lines expressing low levels of Pr3 were used: HLA-A2.1 transfected K562 cells and U937 cell line which lack HLA-A2.1 and would therefore be incapable of presenting peptides in an HLA-A2.1-restricted manner. Cryopreserved bone marrow cells from patients P1-P4, and marrow cells from a healthy normal volunteer (D2, a bone marrow donor for an allogeneic bone marrow transplant performed on patient P3) were thawed and used as targets for the PR1-specific CTL line.
(§3) It was next determined whether the MY2 and MY4-specific CTL lines were capable of lysing allogeneic human myeloid leukemia cells from HLA-A2.1 positive individuals. The targets were BM cells from pre-transplant HLA-A2.1-positive AML patients. As controls, BM cells from HLA-A2.1-negative AML patients, BM from HLA-A2.1-positive healthy donors and two cell lines expressing low levels of MPO were used: HLA-A2.1 transfected K562 cells and the U937 cell line which lacks HLA-A2.1 and would therefore be incapable of presenting peptides in an HLA-A2.1-restricted manner.

In test [7] the test system is human myeloid leukemia cells. The description is as above. Format: cell-based.
Description: as §2, §3

Test [8] has as its system T2 cells. The test is described as follows: Peptide-specific cytotoxicity of peptide-elicited CTL lines against peptide-loaded T2 cells. To be noted: T2 cells loaded with the same peptide; 4-hr assay, varying E:T.
Description: CTL cytotoxicity assay. A semiautomated minicytotoxicity assay was used to determine specific lysis as described previously (Molldrem, 2000; Molldrem et al., 1996). Briefly, effector cells were prepared in doubling dilutions from 6×10^3 to 25×10^3 cells/well and were plated in 40 μl, 60-well Terasaki trays (Robbins Scientific, Sunnyvale, Calif., USA) with six replicates per dilution. Target cells (T2 cells, marrow-derived leukemic cells, or BM from a healthy donor) at a concentration of 2×10^6 cells/ml were stained with 10 μg/ml of Calcein-AM (Molecular Probes Inc.) for 60 min at 37° C. After washing three times in CM plus 10% AB, target cells were resuspended at 10^5 cells/ml, and 10^3 target cells in 10 μl medium were added to each well containing effector cells. Wells with target cells alone and medium alone were used for maximum (max) and minimum (min.) fluorescence emission, respectively. After 4 hr incubation at 37° C. in 5% CO2, 5 μl FluoroQuench (One Lambda Inc., Canoga Park, Calif., USA) was added to each well, and the trays were centrifuged for 1 min at 60 g before measurement of fluorescence using an automated CytoFluor II plate reader (PerSeptive Biosystems, Framingham, Mass., USA). The percentage of lysis was calculated as follows: % lysis={1−[(mean experimental mission−mean min.)/(mean max−mean min.)]}×100%.
Induction of Primary CTL responses to peptides. These peptides were next used to stimulate T cells specific for peptide-coated targets. PBMC from a normal healthy donor heterozygous for HL-A2.1 were stimulated with peptide-pulsed T2 cells. […] Briefly, T2 cells (which co-express the costimulatory molecule B7.1) were washed 3 times in serum-free RPMI culture media supplemented with penicillin/streptomycin and glutamine (CM) and incubated with peptide at 20 μg/mL for 2 hr in CM. The peptide loaded T2 cells were then irradiated with 7500 cGy, washed once, and suspended with freshly isolated PBMC at a 1:1 ratio in CM supplemented with 10% human serum (HS) (Sigma, St. Louis, Mo.). After 7 days in culture, a second stimulation was performed and the following day, 60 IU/mL of recombinant human interleukin-2 (rhIL2) (Biosource International, Camarillo, Calif.) was added. After 14 days in culture a third stimulation was performed, followed on day 15 by addition of rhIL-2. A fourth stimulation was performed on day 21 followed on day 22 by the addition of rhIL2. After a total of 27 days in culture, the peptide-stimulated T cells were harvested and tested for peptide-specific cytotoxicity toward Calcein AM-labeled T2 cells, leukemia cell lines, and fresh human leukemia cells.
The five MPO peptides discussed above, were used to stimulate T cells specific for peptide-coated targets. […]
Test [9] relates to AML colony-forming units (CFU-GM). Put plainly: Colony inhibition assay with MY4 peptide-pulsed CTL. Format: cell-based, human. The text has this:
In contrast there was no inhibition of CFUGM from normal marrow, D1 and D2, the corresponding HLA identical marrow donors for P1 and P2.

The test system of test [10] is P3-HMy.CIR-A2 target cells. Put plainly: Proliferation (BrDU incorporation) of PR1-specific CTL lines with P3-transfected B cells. Format: cell-based, human. The note with it: CTL lines from two healthy donors. From the text:
(§4) The leukemia-associated antigen PR1 is derived from both proteinase 3 and neutrophil elastase proteins. The inventors have shown that killing of leukemia cells by PR1-specific CTL correlates with P3 overexpression. However, the PR1 sequence is also contained within neutrophil elastase (NE), which is also aberrantly expressed in leukemia cells. To determine whether PR1 is processed and presented from either protein, P3- and NE-transfected B cells were used as target cells in a proliferation assay with PR1-specific T cells. Full-length P3 and NE cDNA was cloned from the promyelocytic HL-60 cell line based on published sequences. The sequences were subcloned into an EGFP-containing vector (pCMS-EGFP) with a CMV promoter to drive constitutive expression. The B cell line, HMy-CIR, previously stably transfected with the HLA-A*0201 gene, was transfected with P3-pCMS-EGFP and NE-pCMS-EGFP by electroporation for 24 hr. GFP-expressing cells (P3-HMy.CIR-A2 and NE-HMy.CIR-A2, respectively) were selected by FACSorting and high transfection levels were confirmed by fluorescence microscopy. […] By contrast, NE transcript numbers from a transfected clone were 7-fold less than in HL-60 cells. Western blotting confirmed protein expression in the NE-HMy.CIR-A2-transfected cells, although expression was similarly less than in HL-60 cells. […]

The test system of test [11] is patients with myeloid leukemia. The test is described as follows: Phase I/II PR1 peptide vaccine study. Format: in vivo, human.
Description: PR1 peptide is injected subcutaneously in incomplete Freund's adjuvant every 3 weeks for 3 injections to induce a PR1 specific host response against the myeloid leukemia. […] Vaccination at 3 dose levels of peptide with a fixed amount of IFA will be conducted, and stopping criteria will be guided by established toxicity criteria.
HLA-A2^+ patients with CML (interferon-resistant or relapsed after BMT), AML (smoldering relapse or ≧2nd CR) or MDS (RAEB or RAEBt) with no detectable antibodies to proteinase 3 (no detectable cANCA) were eligible. Patients that relapsed after BMT or those ineligible for BMT were also eligible for study. Pregnant patients, HIV+ patients, and those with known vasculitis were excluded. Patients were required to have immunosuppression (i.e. cyclosporine, steroids) discontinued 4 weeks prior to study entry.
Secondarily, clinical responses were assessed by standard criteria with bone marrow biopsy, cytogenetic studies (standard chromosome banding) and molecular studies (PCR for bcr-abl or other known abnormalities such as t(15;17), inv16, etc.) 3 weeks after the last vaccination. Patients were seen and evaluated in clinic every 3 weeks during the study period. Both vialed PR1 peptide (NSC698102) and the adjuvant (Montanide ISA-51, NSC675756) were used in this study. […]
In test [12] the test system is HMy2.CIR-A2 cells transfected with Pr3. Put plainly: Lysis of Pr3-transfected B cells by PR1 specific CTL. To be noted: E:T 25:1. Format: cell-based, human. The protocol:
Expression of proteinase 3 following transfection into and HMy2.CIR and HMy2.CIR-A2 cells. […] The parental HMy2.CIR cell line, which has lost expression of HLA-A and -B, and the HLA-A2.1-transfected HMy2.CIR cells (named HMy2.CIR-A2), were both transfected with Pr3 as described below.
Ten million HMy2.CIR (ATCC, Rockville, Md.), or 10 million HMy2.CIR-A2 cells were each washed in phosphate buffered saline (PBS) and re-suspended in 0.8 mL of ice-cold PBS and put into an electroporation cuvette with 20 μg of circular plasmid DNA. The mixture was exposed to an electric pulse of 320 volts at 960 microF and incubated on ice for 10 min. Cells were then added to 10 mL of pre-warmed CM. The following day, the CM was replaced. On day 2, cells were grown under selection conditions using 200 μg/mL Zeocin. Following one week of selection, the cells were subcloned by limiting dilution under Zeocin selection, and 6 clones were isolated.
HMy.2.CIR-A2 cells transfected with Pr3 are susceptible to lysis by PR1 specific CTL. It was next determined whether the transfected HMy2.CIR-A2 cells could be lysed by PR1 specific CTL. The PR1 specific CTL were elicited in the manner previously described, and after 22 days in culture were combined at a 25:1 E:T ratio with HMy2.CIR-A2 transfected either with the Pr3-containing vector pRTZ.2, or the empty vector containing the reporter gene, CAT. […]

The subject of test [13] is human myeloid leukemia cells. The test is described as follows: Cytotoxicity of peptide-elicited CTL lines against fresh myeloid leukemia marrow and normal marrow. Format: cell-based. This is another data set of the same source.
Test [14] deals with NE-HMy.CIR-A2. The test is described as follows: Proliferation (BrDU incorporation) of PR1-specific CTL lines with NE-transfected B cells. In kind it is cell-based, human. The note with it: CTL lines from two healthy donors.
Description: as §4

With “CCNE1144-152: nonameric peptide derived from cyclin E1, predicted to bind to the HLA-A2 allele”, the “FI peptide/FI PR1 (HLA-A2 stabilization on T2 cells)” value in [1] is given as 1.008. Besides, in test [2], the “CTL lines that killed HLA-A2 transfected K562 but not non-transfected K562” value was “one of 4”. In addition, the “donors in whom peptide-stimulated CTL lines killed peptide-pulsed T2 cells” value in [3] is given as 3 of 7.

As for “CCNE2144-152: nonameric peptide derived from cyclin E2, predicted to bind to the HLA-A2 allele (ILLDWLLEV)”, the “FI peptide/FI PR1 (HLA-A2 stabilization on T2 cells)” value in test [1] turned out to be 1.189. In addition, the “donors in whom peptide-stimulated CTL lines killed peptide-pulsed T2 cells” value in test [3] was 4 of 7.

“Influenza nucleoprotein: control influenza peptide, Influenza B nucleoprotein (aa 85-94), known high binding affinity to HLA-A2.1 (KLGEFYNQMM) [reference compound]”: the “Median Channel of Fluorescence of HLA-A2 Expression on T2” value (from here on “Median Channel”) in test [4] is recorded as 194. In test [5], the “apoptosis of high avidity PR1-CTL” value is on record as “no apoptosis was observed”.

Take KLLLALAGL [MY2]: the “specific lysis of HLA-A2+ normal BMC by peptide-specific CTL” value in test [6] amounted to 45%. Also, in test [6] (marrow cells from HLA-A2.1-positive normal healthy donor, E:T 20:1), the “lysis by MY2-specific CTL lines” value is given as 43%. Besides, the “lysis of HLA-A2.1-positive AML marrow cells by peptide-specific CTL” value in test [7] was “readily lysed”. In addition, the “peptide-specific lysis by CTL line generated against the peptide” value (“peptide-specific lysis” for short) in [8] was “high specific lysis”.

Regarding KLNDILLIQL [PR71], in [4], the “surface HLA-A2.1 expression on peptide-pulsed T2 cells” value (“surface HLA-A2.1 expression” below) was “strong peptide binding”.

As for KLNDVLLIQL [PR7V], in test [4], the “surface HLA-A2.1 expression” value was “strong peptide binding”.

Turning to RLFEQVMRI [MY4], the “inhibition of CFU-GM by MY4 peptide-pulsed CTL” value in test [9] (normal marrow, D1 and D2 (HLA identical donors)) was “no inhibition”. The “inhibition of CFU-GM by MY4 peptide-pulsed CTL (CTL1)” value in test [9] (patient P1 (M2-AML)) turned out to be 63%; in test [9] (patient P2 (M4-AML)), 34%. Also, the “specific lysis of HLA-A2+ normal BMC by peptide-specific CTL” value in test [6] is reported as “no lysis of normal BMC”. Further, the “lysis of HLA-A2.1-positive AML marrow cells by peptide-specific CTL” value in test [7] is listed as “killed AML cells, but not normal cells”. Moreover, the “peptide-specific lysis” value in test [8] is “tested similarly”.

Turning to RLFPDFFTRV [PR2], in test [4], the “surface HLA-A2.1 expression” value is reported as “increased surface HLA-A2.1 expression” and the “Median Channel” value was 273. The “peptide-specific lysis” value in test [8] is “did not demonstrate any significant cytotoxicity”.

As for “VLQELNVTV [PR1, HLA-A2.1-restricted nonamer (aa 169-177) derived from proteinase 3]”, the “surface HLA-A2.1 expression” value in [4] is reported as “increased surface HLA-A2.1 expression”. Also, in test [4], the “Median Channel” value came out at 294. Also, the “stimulation indices (SI) of PR1-specific CTL lines” value is 1.3 and 2.4 in [10]; 1.5 and 2.1 in test [14]. In [11] (0.25, 0.5 or 1.0 mg s.c. every 3 weeks for 3 injections), the “PR1-specific CTL immunity elicited (by tetramer staining)” value is reported as 6 of 9. This substance also yielded a complete remissions in test [11] (9 patients (1 AML and 1 CML patient)) of 2 patients. Moreover, the “lysis by PR1-specific CTL line” value in [6] (marrow cells from normal healthy donor (D2)) is listed as less than 20%. Further, the “specific lysis by CTL specific for PR-1” value in [7] (marrow cells from a patient with CML in blast crisis, E:T 25:1) was determined as 73%. Besides, in [7] (marrow cells of P1 (CML in chronic phase), E:T 6:1), the “specific lysis by PR1-specific CTL line” value is 53%. Further, the “specific lysis by PR1 specific CTL” value in test [12] (Pr3-transfected cells (clone 1.4)) is on record as 36%. Moreover, the “lysis of negative control targets by PR1 specific CTL” value in test [12] (normal marrow cells, HL-60, HMy2.CIR with empty vector (CAT), non-transfected parent line) is recorded as “only background lysis”. Besides, the “apoptosis of high avidity PR1-CTL” value in [5] is recorded as “underwent apoptosis”. In test [5] (high or low concentrations of PR1), the “apoptosis of low avidity PR1-CTL” value is given as “did not undergo apoptosis”. Besides, the “peptide-specific lysis” value in test [8] is recorded as “high specific lysis”. The “lysis of CML #3 BM cells by CTL elicited with 0.2 μM PR1” value was 24%±5% in test [13] (CTL from patient CML #1, E:T 20:1) and 33%±6% in test [13] (CTL from patient CML #2, E:T 20:1). Further, the “fold greater lysis of CML BM cells, CTL elicited with 0.2 μM vs 20 μM PR1” value in test [13] (per cell basis, 4-hr cytotoxicity assay) is roughly 2 fold.
